Experimental data taken from patent US20060003896A1, “Novel diterpenoid compounds imparting stress resistance to plants” (National Institute of Agrobiological Sciences, priority 2002, published 2006).

Key:
[1] = system: WIPK; test: WIPK activity measurement (MBP phosphorylation by anti-WIPK immune complex) in treated tobacco leaves; type: cell-based, Nicotiana tabacum cv. Samsun NN
Experimental: The WIPK induced activity assay was conducted as follows: A filter paper was spread in a glass Petri dish of 3 cm inside diameter, onto which the test solution for assay was added, organic solvent was removed under the flow of nitrogen gas, and 10 mM Mes-NaOH (pH 5.6) of 1 ml was added, on which three leaf disks (diameter 9 mm) stamped out of the tobacco leaves were placed per Petri dish and cultured at 24° C. In two hours, the disks were collected and immediately frozen in liquid nitrogen to be used in WIPK activity measurement that was conducted following the method described in Seo et al. (1999) Plant Cell 11, 289-291. The outline is as follows:
Crude protein of 50 μg and anti-WIPK antibody were reacted and the myelin basic protein phosphorylation activity of WIPK in the resultant immune complex was measured.
(§1) Isolated material was dissolved in dimethyl sulfoxide (DMSO) and diluted with 10 mM Mes-NaOH (pH 5.6) to an adequate concentration. If it was used in an assay, the DMSO concentration was kept below 0.1%. […] 10 mM Mes-NaOH (pH 5.6) without active substance of the invention was used as a control group. In a certain amount of time, the leaves were collected and immediately frozen in liquid nitrogen to conduct WIPK activity measurement or RNA extraction for Northern blot analysis. WIPK activity measurement, RNA extraction and Northern blot analysis were performed following Seo et al. (1999) plant Cell 11, 289-291. WIPK activity was measured 15 minutes after the subject was allowed to absorb the isolated compound at the given concentration through the petiole. Only buffer was absorbed in a control group. As another control group (healthy leaf), leaves were cut from tobacco plant body to be immediately subjected to WIPK activity measurement. For proteinase inhibitor II (PI-II), basic PR-1, basic PR-2 genes and ACO, transcription product amounts of PI-II, basic PR-1, basic PR-2 genes and ACO-coding gene were measured after allowing the subject absorb the isolated compound at the given concentration through the petiole for a period of time. As a control group, only buffer was absorbed. The outline is as follows:
(§2) Using natural isolated substances, preparations at concentrations of 10 and 100 pM, and 1 and 100 nM were prepared and these natural preparations or water were penetrated into tobacco leaf disks, followed by sampling at 30 minutes after treatment, to measure the MBP phosphorylation activity of WIPK and SIPK as described above.

[2] = system: SIPK; test: SIPK activity measurement (MBP phosphorylation by anti-SIPK immune complex) in treated tobacco leaves; type: cell-based, Nicotiana tabacum cv. Samsun NN
Experimental: As an active substance, the substance isolated in Example 1 was used as a standard. The isolated substance was dissolved in dimethyl sulfoxide (DMSO) and diluted to adequate concentration (0.3, 1.5 and 3 ng/ml) with 10 mM Mes-NaOH (pH 5.6). If it was used in an assay, the DMSO concentration was kept below 0.1%. […] 10 mM Mes-NaOH (pH 5.6) without active substance of the invention was used as a control group. In a certain amount of time, the leaves were collected and immediately frozen in liquid nitrogen to measure the SIPK activity. The measurement was conducted as follows:
Crude protein of 50 μg and anti-SIPK antibody were reacted and the myelin basic protein (MBP) phosphorylation activity of SIPK in the resultant immune complex was measured.
as §2

[3] = system: ACO-coding gene; test: Northern blot analysis of transcription products in treated tobacco leaves; type: cell-based, Nicotiana tabacum cv. Samsun NN; conditions: through the petiole
Experimental: as §1, with “follows: Nucleic acid hybridization reaction was performed on nylon membrane containing 20 μg total RNA with ^32P-radiolabeled cDNA of tobacco PI-II, basic PR-1, basic PR-2 genes and ACO-coding gene. After the membrane was washed it was used to expose to an X-ray film.” for “follows:”

[4] = system: basic PR-1 gene; test: as above; type: cell-based, Nicotiana tabacum cv. Samsun NN; conditions: through the petiole
Experimental: as §1, with “follows: Nucleic acid hybridization reaction was performed on nylon membrane containing 20 μg total RNA with ^32P-radiolabeled cDNA of tobacco PI-II, basic PR-1, basic PR-2 genes and ACO-coding gene. After the membrane was washed it was used to expose to an X-ray film.” for “follows:”

[5] = system: basic PR-2 gene; test: as above; type: cell-based, Nicotiana tabacum cv. Samsun NN; conditions: through the petiole
Experimental: as §1, with “follows: Nucleic acid hybridization reaction was performed on nylon membrane containing 20 μg total RNA with ^32P-radiolabeled cDNA of tobacco PI-II, basic PR-1, basic PR-2 genes and ACO-coding gene. After the membrane was washed it was used to expose to an X-ray film.” for “follows:”

[6] = system: proteinase inhibitor II gene; test: as above; type: cell-based, Nicotiana tabacum cv. Samsun NN
Experimental: as §1, with “follows: Nucleic acid hybridization reaction was performed on nylon membrane containing 20 μg total RNA with ^32P-radiolabeled cDNA of tobacco PI-II, basic PR-1, basic PR-2 genes and ACO-coding gene. After the membrane was washed it was used to expose to an X-ray film.” for “follows:”

[7] = system: JA; test: Intrinsic JA level in tobacco leaves after absorption through the petiole; type: cell-based; conditions: 3-, 6-, 12- or 24-hours culture
Experimental: To evaluate whether the induction of basic pathogenesis-related protein gene (PR-1 and PR-2) and proteinase inhibitor II gene by synthetic substance occurred through JA or SA, 100 nM or 1 μM WAF-1 or water was absorbed into tobacco leaves through the petiole, followed by culture at 24° C., to measure the intrinsic level of JA.

[8] = system: SA; test: Intrinsic SA level in tobacco leaves after absorption through the petiole; type: cell-based; conditions: 3-, 6-, 12- or 24-hours culture
[9] = system: ethylene; test: Release of ethylene from treated tobacco leaf; type: cell-based
Experimental: Ethylene acts as a signal in the induction of basic PR protein of tobacco plant, so the release of ethylene was measured after externally giving WAF-1 to a tobacco leaf as above to evaluate the effects of synthetic substance on ethylene accumulation.

[10] = system: WIZZ gene; test: RNA gel blotting of WIZZ transcript in tobacco leaf disks; type: cell-based; conditions: 1 nM, 30 minutes after penetrance
Experimental: The transition in expression of the WIZZ transcript after stimulation with WAF-1 in this invention was ascertained using the following method. Leaf disks stamped out of tobacco leaves were penetrated with 1 nM WAF-1 solution or water and collected at 30 minutes after penetrance to be used for total RNA extraction. Total RNA extraction followed the method described in Seo et al. Plant Cell 1999, 11, 289-299. Isolated total RNA was subjected to RNA gel blotting analysis following the above procedure. A fragment, whose sequence corresponded to bases 877-1211 in the WIZZ cDNA (335 bp) was amplified, and used as a probe. As an internal standard probe, actin cDNA (described in Seo et al. 2000 12, 917-932) was also used. An RNA gel blot membrane containing 20 μg total RNA per lane was analized.

[11] = system: vermin; test: Presenting vermin to rice administered with the substance; type: in vivo; conditions: vermin presented
Experimental: Therefore, an experiment was conducted by administering this substance to plants and presenting vermin to the administered plant. In this example, rice was used as a target.

[12] = system: Arabidopsis (Arabidopsis thaliana); test: Growth of periphery and height of stem after spraying; type: in vivo; conditions: sprayed, 300, 100 and 30 ng/ml, 24° C.
Experimental: (§3) In this Example, 15-day-old Arabidopsis (Arabidopsis thaliana), 1-month-old tobacco (Nicotiana tabacum cv. Samsun—NN), or 20-day-old rice (Oryza sativa) was used to provide plant bodies. The compound of this invention was dissolved in dimethyl sulfoxide (DMSO) and diluted with 10 mM Mes-NaOH (pH 5.6) to an adequate concentration (300, 100 and 30 ng/ml). 10 mM of Mes-NaOH containing the compound of this invention at the given concentration was sprayed to tobacco and rice plant bodies, followed by culture at 24° C. As a control group, 10 mM Mes-NaOH (pH 5.6) free of the compound of this invention was used. In a certain amount of time, the periphery and the height of stem above ground level were measured in rice, Arabidopsis and tobacco plant bodies.

[13] = system: rice (Oryza sativa); test: as above; type: in vivo; conditions: sprayed, 300, 100 and 30 ng/ml, 24° C.
Experimental: as §3

[14] = system: tobacco (Nicotiana tabacum cv. Samsun—NN); test: as above; type: in vivo; conditions: sprayed, 300, 100 and 30 ng/ml, 24° C.
Experimental: as §3

[15] = system: petunia plant body; test: Flowering of petunia plant bodies after spraying; type: in vivo
Experimental: In this example, 1-month-old petunia plant body was used. The compound of this invention was dissolved in dimethyl sulfoxide (DMSO) and diluted with 10 mM Mes-NaOH (pH 5.6) to an adequate concentration (300, 100 and 30 ng/ml). 10 mM Mes-NaOH containing the compound of this invention at the given concentration was sprayed on the petunia plant bodies, followed by culture at 24° C. In a control group, 10 mM Mes-NaOH (pH 5.6) without the compound of this invention was used. After a certain amount of time, observation of the gross flowering features of the plant bodies was performed. The administration of the compound of this invention to plants was then discontinued, only buffer was sprayed, and the flowering was observed.

[16] = system: TMV; test: Defense of tobacco against TMV infection (necrotic lesion size, TMV coat protein); type: in vivo, tobacco mosaic virus
Experimental: To complete the infection, this healthy leaf was allowed to stand at room temperature for 30 minutes and washed with water removing the silicon carbide, after air drying, was put into a transparent plastic box spread with wet filter papers, followed by culture at 30° C. for 40 hours, then at 20° C. for 6 hours.
In this Example, the substance in this invention was administered to non-TMV-infected tobacco as a target. TMV stimulation was then given, under the same conditions as those in Example 1, to plants administered with the substance of this invention at the concentrations shown in FIG. 12 and tp control plant not administered to measure the size of necrotic lesions and the amount of TMV coat protein.

[17] = 1, 5 and 10 nM through the petiole
[18] = tobacco leaf disks, 30 minutes after treatment

Compound: CC(/C=C/[C@@H]1[C@@]2(C)CCCC(C)(C)[C@@H]2CC[C@@]1(C)O)=C\CO [WAF-1, (11E,13E)-labda-11,13-diene-8α,15-diol]
- time at which WIPK activity was maximized [1, 17]: 15 min
- time at which induction of WIPK activity was observed [1, 17]: 5 min
- WIPK activity at 30 minutes ([1]; 1, 5 and 10 nM through the petiole, 30 minutes): retained maximum activity
- induction of WIPK activity ([1]; each concentration of FIG. 2A given to leaf through the petiole, 15 minutes): induction of WIPK activity at any concentration
- concentration above which activation of WIPK is significant [1, 18]: > 10 pM
- time at which induction of SIPK activity was maximized [2, 17]: 15 min
- induction of SIPK activity ([2]; each concentration of FIG. 4 (0.3, 1.5 and 3 ng/ml) through the petiole, 15 minutes): induction of SIPK activity at any concentration
- concentration above which activation of SIPK is significant [2, 18]: > 10 pM
- accumulation of ACO [3]: accumulation
- accumulation of basic PR-1 [4]: accumulation
- accumulation of basic PR-2 [5]: accumulation
- amount of proteinase inhibitor II transcript compared with control group ([6]; 16 hours): significantly more
- time at which accumulation of transcription products of proteinase inhibitor II gene was detected ([6]; examined in 2, 6 and 16 hours, concentration of FIG. 3, through the petiole): 16 h
- amount of JA in treated leaves ([7]; 100 nM): at the same level as those treated with water
- amount of JA in treated leaves ([7]; 1 AM (so in the source)): at the same level as those treated with water
- amount of SA in treated leaves ([8]; 100 nM): at the same level as those treated with water
- amount of SA in treated leaves ([8]; 1 AM (so in the source)): at the same level as those treated with water
- level of ethylene released from leaves, relative to leaf treated with water ([9]; 100 nM): 1.2 times
- level of ethylene released from leaves, relative to leaf treated with water ([9]; 1 μM): 1.4 times
- level of WIZZ transcript compared with leaf disks impregnated with water [10]: higher
- growth in administered rice compared with rice not administered [11]: Growth was regulated
- growth of periphery and height of stem vs control group [12]: delay in growth of the periphery and height of stem
- growth of height above ground level vs control group [13]: growth of height above ground level was observed
- growth of periphery and height of stem vs control group [14]: delay in growth of the periphery and height of stem
- flowering after discontinuation of administration ([15]; only buffer sprayed): observation of flowering
- flowering vs control group ([15]; sprayed, 300, 100 and 30 ng/ml, 24° C.): delay in flowering

Compound: (11E,13E)-labda-11,13-diene-8α,15-diol [WAF-1]
- TMV coat protein amount ([16]; tobacco leaf, 100 pM or 100 nM vs water): decrease
- concentration above which the size of necrotic lesions decreased ([16]; tobacco, TMV stimulation, 10 pM to 100 nM, dose-dependent): higher than 100 pM
